In patent publication US20240083903A1, “ARYL ETHER COMPOUNDS AS TEAD MODULATORS” (Merck Sharp& Dohme LLC, priority 2021, published 2024):

These compounds were tested on TEAD Reporter-MCF7 cell line (assay: YAP/TEAD cellular activity assay: inhibition of TEAD-Luc activity in TEAD Reporter-MCF7 cell line). Conditions: Homo sapiens, MCF7, 24 h, TEAD Reporter-MCF7 cells, 24 hours incubation with compound, luciferase readout.
Format: cell-based, human
Procedure, shortened: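 MCF7 cells stably carrying a TEAD-responsive firefly luciferase reporter were seeded at 10,000 cells/well, grown 20-24 h, then exposed to compounds for 24 h at 37° C. Luciferase read by ONE-Glo EX luminescence; percent inhibition and EC50 derived.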

EC50 [nM] | SMILES
52.6 | CNS(=O)(=O)c1ccc(O[C@H]2CC[C@H](C(F)(F)F)CC2)c(-c2cn3c(n2)CCC3)c1 [4-1, 3-(6,7-Dihydro-5H-pyrrolo[1,2-a]imidazol-2-yl)-N-methyl-4-(((1r,4r)-4-(trifluoromethyl)cyclohexyl)oxy)benzenesulfonamide]
261 | CNS(=O)(=O)c1ccc(Oc2ccc(C(F)(F)F)nc2)c(-c2cn3c(n2)CCC3)c1 [4-2, 3-(6,7-dihydro-5H-pyrrolo[1,2-a]imidazol-2-yl)-N-methyl-4-((6-(trifluoromethyl)pyridin-3-yl)oxy)benzenesulfonamide]
5.7 | CNS(=O)(=O)c1ccc(Oc2ccc(C(C)(C)C)cc2)c(-c2cn3c(n2)CCC3)c1 [4-3, 4-(4-tert-butylphenoxy)-3-(6,7-dihydro-5H-pyrrolo[1,2-a]imidazol-2-yl)-N-methylbenzene-1-sulfonamide]
32.3 | CNS(=O)(=O)c1ccc(Oc2ccc3c(c2)CCC3)c(-c2cn3c(n2)CCC3)c1 [4-4, 4-[(2,3-dihydro-1H-inden-5-yl)oxy]-3-(6,7-dihydro-5H-pyrrolo[1,2-a]imidazol-2-yl)-N-methylbenzene-1-sulfonamide]
103 | CNS(=O)(=O)c1ccc(Oc2cccc(Cl)c2)c(-c2cn3c(n2)CCC3)c1 [4-5, 4-(3-chlorophenoxy)-3-(6,7-dihydro-5H-pyrrolo[1,2-a]imidazol-2-yl)-N-methylbenzene-1-sulfonamide]
146 | CNS(=O)(=O)c1ccc(Oc2cccc(F)c2)c(-c2cn3c(n2)CCC3)c1 [4-6, 3-(6,7-dihydro-5H-pyrrolo [1,2-a]imidazol-2-yl)-4-(3-fluorophenoxy)-N-methylbenzene-1-sulfonamide]
23.8 | CNS(=O)(=O)c1ccc(Oc2ccc(C)cc2)c(-c2cn3c(n2)CCC3)c1 [4-7, 3-(6,7-dihydro-5H-pyrrolo [1,2-a]imidazol-2-yl)-N-methyl-4-(4-methylphenoxy)benzene-1-sulfonamide]
5.5 | CNS(=O)(=O)c1ccc(Oc2ccc(C(C)C)cc2)c(-c2cn3c(n2)CCC3)c1 [4-8, 3-(6,7-dihydro-5H-pyrrolo [1,2-a]imidazol-2-yl)-N-methyl-4-[4-(propan-2-yl)phenoxy]benzene-1-sulfonamide]
15.1 | CCc1ccc(Oc2ccc(S(=O)(=O)NC)cc2-c2cn3c(n2)CCC3)cc1 [4-9, 3-(6,7-dihydro-5H-pyrrolo [1,2-a]imidazol-2-yl)-4-(4-ethylphenoxy)-N-methylbenzene-1-sulfonamide]
21.6 | CCc1cccc(Oc2ccc(S(=O)(=O)NC)cc2-c2cn3c(n2)CCC3)c1 [4-10, 3-(6,7-dihydro-5H-pyrrolo [1,2-a]imidazol-2-yl)-4-(3-ethylphenoxy)-N-methylbenzene-1-sulfonamide]
206 | CNS(=O)(=O)c1ccc(Oc2ccc(F)c(F)c2)c(-c2cn3c(n2)CCC3)c1 [4-11, 4-(3,4-difluorophenoxy)-3-(6,7-dihydro-5H-pyrrolo[1,2-a]imidazol-2-yl)-N-methylbenzene-1-sulfonamide]
14.1 | CNS(=O)(=O)c1ccc(Oc2ccc(Cl)cc2)c(-c2cn3c(n2)CCC3)c1 [4-12, 4-(4-chlorophenoxy)-3-(6,7-dihydro-5H-pyrrolo[1,2-a]imidazol-2-yl)-N-methylbenzene-1-sulfonamide]
207 | CNS(=O)(=O)c1ccc(Oc2ccc(F)cc2)c(-c2cn3c(n2)CCC3)c1 [4-13, 3-(6,7-dihydro-5H-pyrrolo [1,2-a]imidazol-2-yl)-4-(4-fluorophenoxy)-N-methylbenzene-1-sulfonamide]
45.7 | CNS(=O)(=O)c1ccc(Oc2ccc(OC)cc2)c(-c2cn3c(n2)CCC3)c1 [4-14, 3-(6,7-dihydro-5H-pyrrolo[1,2-a]imidazol-2-yl)-4-(4-methoxyphenoxy)-N-methylbenzene-1-sulfonamide]
22.3 | CNS(=O)(=O)c1ccc(Oc2cccc(C(F)(F)F)c2)c(-c2cn3c(n2)CCC3)c1 [4-15, 3-(6,7-dihydro-5H-pyrrolo[1,2-a]imidazol-2-yl)-N-methyl-4-[3-(trifluoromethyl)phenoxy]benzene-1-sulfonamide]
5.2 | CNS(=O)(=O)c1ccc(Oc2ccc(Cl)c(C(F)(F)F)c2)c(-c2cn3c(n2)CCC3)c1 [4-16, 4-[4-chloro-3-(trifluoromethyl)phenoxy]-3-(6,7-dihydro-5H-pyrrolo[1,2-a]imidazol-2-yl)-N-methylbenzene-1-sulfonamide]

EC50 [nM] | SMILES
14 | CNS(=O)(=O)c1ccc(Oc2ccc(SC(F)(F)F)cc2)c(-c2cn3c(n2)CCC3)c1 [4-17, 3-(6,7-dihydro-5H-pyrrolo[1,2-a]imidazol-2-yl)-N-methyl-4-{4-[(trifluoromethyl)sulfanyl]phenoxy}benzene-1-sulfonamide]
15.2 | CNS(=O)(=O)c1ccc(Oc2ccc(S(F)(F)(F)(F)F)cc2)c(-c2cn3c(n2)CCC3)c1 [4-18, 3-(6,7-dihydro-5H-pyrrolo[1,2-a]imidazol-2-yl)-N-methyl-4-[4-(pentafluoro-lambda~6~-sulfanyl)phenoxy]benzene-1-sulfonamide]
15.3 | CNS(=O)(=O)c1ccc(Oc2ccc(C)cc2F)c(-c2cn3c(n2)CCC3)c1 [4-19, 3-(6,7-dihydro-5H-pyrrolo[1,2-a]imidazol-2-yl)-4-(2-fluoro-4-methylphenoxy)-N-methylbenzene-1-sulfonamide]
15 | CNS(=O)(=O)c1ccc(Oc2ccc(Cl)cc2F)c(-c2cn3c(n2)CCC3)c1 [4-20, 4-(4-chloro-2-fluorophenoxy)-3-(6,7-dihydro-5H-pyrrolo[1,2-a]imidazol-2-yl)-N-methylbenzene-1-sulfonamide]
4410 | O=S(=O)(NCC1CC1)c1ccc(Oc2ccc(C(F)(F)F)cc2)c(-c2cnn3c2CCC3)c1 [5-1, N-(Cyclopropylmethyl)-3-(5,6-dihydro-4H-pyrrolo[1,2-b]pyrazol-3-yl)-4-(4-(trifluoromethyl)phenoxy)benzenesulfonamide]
6690 | CNS(=O)(=O)c1ccc(Oc2ccc(C(F)(F)F)cc2)c(-n2cc3c(n2)CN(C)C3)c1 [6-1, N-Methyl-3-(5-methyl-5,6-dihydropyrrolo [3,4-c]pyrazol-2(4H)-yl)-4-(4-(trifluoromethyl)phenoxy)benzenesulfonamide]
68.5 | CNS(=O)(=O)c1ccc(Oc2ccc(C(F)(F)F)cc2)c(-n2cc3c(n2)CCC3)c1 [6-2, 3-(5,6-dihydrocyclopenta[c]pyrazol-2(4H)-yl)-N-methyl-4-[4-(trifluoromethyl)phenoxy]benzene-1-sulfonamide]
35.2 | CCNS(=O)(=O)c1ccc(Oc2ccc(C(F)(F)F)cc2)c(-c2cn3c(n2)CCC3)c1 [7-2, 3-(6,7-dihydro-5H-pyrrolo[1,2-a]imidazol-2-yl)-N-ethyl-4-[4-(trifluoromethyl)phenoxy]benzene-1-sulfonamide]
17.8 | O=S(=O)(NC1CC1)c1ccc(Oc2ccc(C(F)(F)F)cc2)c(-c2cn3c(n2)CCC3)c1 [7-3, N-cyclopropyl-3-(6,7-dihydro-5H-pyrrolo[1,2-a]imidazol-2-yl)-4-(4-(trifluoromethyl)phenoxy)benzenesulfonamide]
21.5 | CNS(=O)(=O)c1ccc(Oc2ccc(F)cc2)c(-c2cc3n(n2)CCC3)c1 [8-2, 3-(5,6-dihydro-4H-pyrrolo[1,2-b]pyrazol-2-yl)-4-(4-fluorophenoxy)-N-methylbenzene-1-sulfonamide]
1.3 | CNS(=O)(=O)c1cnc(Oc2ccc(C(F)(F)F)cc2)c(-c2cc3n(n2)CCC3)c1 [8-3, 5-(5,6-dihydro-4H-pyrrolo[1,2-b]pyrazol-2-yl)-N-methyl-6-[4-(trifluoromethyl)phenoxy]pyridine-3-sulfonamide]
46.6 | CNS(=O)(=O)c1ccc(Oc2ccc(C(F)F)cc2)c(-c2cc3n(n2)CCC3)c1 [8-4, 4-[4-(difluoromethyl)phenoxy]-3-(5,6-dihydro-4H-pyrrolo[1,2-b]pyrazol-2-yl)-N-methylbenzene-1-sulfonamide]
907 | CNS(=O)(=O)c1ccc(Oc2ccc(C(F)(F)F)cc2)c(-c2cn3c(n2)C(O)CC3)c1 (centres unmarked) [9-1, 3-(7-Hydroxy-6,7-dihydro-5H-pyrrolo[1,2-a]imidazol-2-yl)-N-methyl-4-(4-(trifluoromethyl)phenoxy)benzenesulfonamide]
304 | CNS(=O)(=O)c1ccc(Oc2ccc(C(F)(F)F)cc2)c(-c2cn3c(n2)C(C)(O)CC3)c1 (centres unmarked) [9-2, 3-(7-Hydroxy-7-methyl-6,7-dihydro-5H-pyrrolo[1,2-a]imidazol-2-yl)-N-methyl-4-(4-(trifluoromethyl)phenoxy)benzenesulfonamide]
49.8 | CNS(=O)(=O)c1ccc(Oc2ccc(C(F)(F)F)cn2)c(-c2cn3c(n2)CCC3)c1 [10-1, 3-(6,7-Dihydro-5H-pyrrolo[1,2-a]imidazol-2-yl)-N-methyl-4-((5-(trifluoromethyl)pyridin-2-yl)oxy)benzenesulfonamide]

Same assay, conditions: Homo sapiens; TEAD Reporter-MCF7 cells, 24 hours incubation with compound, luciferase readout

SMILES | EC50 [nM]
CC(C)NS(=O)(=O)c1ccc(Oc2ccc(C(F)(F)F)cc2)c(-c2cn3c(n2)CCC3)c1 [7-1, 3-(6,7-dihydro-5H-pyrrolo[1,2-a]imidazol-2-yl)-N-(propan-2-yl)-4-[4-(trifluoromethyl)phenoxy]benzene-1-sulfonamide] | 138
CNS(=O)(=O)c1ccc(Oc2ccc(Cl)cc2)c(-c2cc3n(n2)CCC3)c1 [8-1, 4-(4-Chlorophenoxy)-3-(5,6-dihydro-4H-pyrrolo[1,2-b]pyrazol-2-yl)-N-methylbenzene-1-sulfonamide] | 10.4

Same assay, conditions: TEAD Reporter-MCF7 cells, 24 hours incubation with compound, luciferase readout

EC50 [nM] | SMILES
55.9 | CNS(=O)(=O)c1ccc(Oc2ccc(F)cc2F)c(-c2cn3c(n2)CCC3)c1 [4-21, 4-(2,4-difluorophenoxy)-3-(6,7-dihydro-5H-pyrrolo[1,2-a]imidazol-2-yl)-N-methylbenzene-1-sulfonamide]
25.3 | CNS(=O)(=O)c1ccc(Oc2ccc(F)cc2F)c(-c2cn3c(n2)CCC3)c1 [4-22, 4-(2,4-difluorophenoxy)-3-(6,7-dihydro-5H-pyrrolo[1,2-a]imidazol-2-yl)-N-methylbenzene-1-sulfonamide]
